Values of other authors in article PMC10202811 (Nature Medicine, 2023).

Assays:
[1] = test system: inflammatory myofibroblastic tumors; conditions: cited from earlier work
ALK-driven malignancies = test system: ALK-driven malignancies; parameters: method as in PMID 34780709; conditions: children, 6/30; cited from earlier work

For `C[C@@H](Oc1cc(-c2cnn(C3CCNCC3)c2)cnc1N)c1c(Cl)ccc(F)c1Cl` [crizotinib], the RR [1] is given as 86%.
For `Cc1cc(Nc2ncc(Cl)c(Nc3ccccc3S(=O)(=O)C(C)C)n2)c(OC(C)C)cc1C1CCNCC1` [ceritinib], the “RR (complete/partial)” value (ALK-driven malignancies) is listed as 20%.
